Laboratory results as given in patent US5202266A, “25-hydroxy vitamin D3 derivatives, process for their production, and assay method using the same” (Asahi Kasei Kogyo Kabushiki Kaisha, priority 1987, dated 1993).

What was measured:
[1] = system: Anti-25-hydroxy vitamin D3 rabbit serum; experiment: Radio immunoassay standard curve of 25-hydroxy vitamin D3 using the labeled derivative as tracer; format: binding; conditions: RIA; for sensitivity of assay, monoiodine vs diiodine [125I] labeling: FIG. 3; for standard curve result by methylene chain length n in R1: FIG. 4, n=1, n=2, n=3 compared
Description: A standard ethanol solution of 25-hydroxy vitamin D3 (256 pg/20 μl) was diluted stepwise by two-fold dilution to prepare 128 pg/20 μl, 64 pg/μl, 32 pg/20 μl, 16 pg/20 μl, 8 pg/20 μl, 4 pg/20 μl and 2 pg/20 μl samples.
Samples (20 μl) of each concentration hereinabove were pipetted into three tubes. Ethanol solutions, each 20 μl, of radioisotope iodine [^125 I]-labeled 25-hydroxy vitamin D3 derivative which contains as an antioxidant tocopherol was pipetted into each tube (20 μl, ca. 13,000 cpm).
Anti-25-hydroxy vitamin D3 rabbit serum diluted with tris buffer (approx. 15,000 dilution) pH 8.6, each 1 ml, was added to each tube. Each mixture in the tubes was stirred in a BORTEX mixer and allowed to stand at 5° C. overnight (20-24 hours). Glycine buffer (pH 8.6) suspending a mixture of dextran (T70) and active charcoal (1:10), each 300 μl) was added into the reaction tubes, and each was stirred by a BORTEX mixer and incubated at 5° C. for 1 hour. B-F separation was performed by centrifugation at 3,000 r.p.m. for 10 mins., and each supernatant solution (1 ml) was measured by an Autowell γ-counter for 1 min. The ratio of binding is calculated by the following equation: [formula] wherein (B) is the count number in each tube, (BL) is the count number measured by using 25-hydroxy vitamin D3 (1,000 pg/20 μl) in place of isotope ^125 I-labeled 25-hydroxy vitamin D3 derivative, and (Bo) is the count number measured by using 25-hydroxy vitamin D3 at zero concentration.
A standard curve was prepared by using tritium [^3 H]-labeled 25-hydroxy vitamin D3 derivative (26, 27-methyl-^3 H) as in the case of the [^125 I]-labeled derivative in (1) hereinabove.
Monoiodine [^125 I] labeling and diiodine [^125 I] labeling were compared according to the same method as hereinabove. In FIG. 3, -- -- -- indicates monoiodine [^125 I] labeling, and -- -- -- indicates diiodine [^125 I] labeling.
In formula [IV], assays using compounds having methylene R1 [--CH2)n--] wherein n=1, n=2 and n=3, are compared with each other.

[2] = Storage stability of [125I]-labeled derivative, checked by CPBA standard curve using DBP; format: physicochemical; conditions: 50% H2O-ethanol solution, -20° C., argon atmosphere, day 0, 21 and 49; FIG. 6
Description: A standard ethanol solution of 25-hydroxy vitamin D3 (1,024 pg/20 μl) was diluted stepwise by two-fold dilutions to prepare 32 pg/20 μl, 16 pg/20 μl, 8 pg/20 μl, 4 pg/20 μl, 2 pg/20 μl and 1 pg/20 μl.
Samples (20 μl) of each concentration hereinabove were pipetted into two tubes. Aliquots of an ethanol solution, each 20 μl, of radioisotope iodine [125I]-labeled 25-hydroxy vitamin D3 derivative, containing as an antioxidant tocopherol, were pipetted into each tube (20 μl, ca. 30,000 cpm) DBP diluted with tris buffer, pH 8.6 (approx. 500-1,000 dilution of DBP fraction in (1) hereinabove) each 500 μl, was stirred and allowed to stand at 4° C. for 16 hours.
Glycine buffer, pH 8.6, suspending a mixture of dextran (T70) and active charcoal (1:10) (each 30 μl), was added into the reaction tubes, stirred and incubated at 4° C. for 30 mins. B-F separation was made by centrifugation at 3,000 r.p.m. for 10 mins. at 4° C., and each supernatant solution 500 μl was measured by an Autowell γ-counterfor 1 min. The ratio of binding is calculated by the following equation: [formula] wherein (B) is the count number in each tube, (NSB)-- is the count number measured by using 25-hydroxy vitamin D3 (1,024 pg/20 μl) instead of ^12 5I-labeled 25-hydroxy vitamin D3 derivative and (Bo) is the count number measured by using 25-hydroxy vitamin D3 at zero concentration.
A 50% H2 O-ethanol solution of [^125 I] […]

Row | Structure (SMILES) | sensitivity of assay, monoiodine vs diiodine [125I] labeling [1] | stability: change of standard curve after storage [2] | standard curve result by methylene chain length n in R1 [1]
1 | C=C1CC[C@H](OC(=O)CCNC(=O)CCc2ccc(O)c([125I])c2)C/C1=C/C=C1\CCC[C@]2(C)[C@@H]([C@H](C)CCCC(C)(C)O)CC[C@@H]12 [Example 4, 25-hydroxy vitamin D3 --3β--O--{3-[N-3-(4-hydroxy-3-iodo [^125 I]phenyl)propionyl]amino propionate}] | almost the same sensitivity | no changes of the standard curve within a range of 2-32 pg/Test were observed | –
2 | C=C1CC[C@H](OC(=O)CCNC(=O)CCc2cc([125I])c(O)c([125I])c2)C/C1=C/C=C1\CCC[C@]2(C)[C@@H]([C@H](C)CCCC(C)(C)O)CC[C@@H]12 [Example 5] | almost the same sensitivity | no changes of the standard curve within a range of 2-32 pg/Test were observed | –
3 | C=C1CC[C@H](OC(=O)CCNC(=O)CCc2ccc(O)c([125I])c2)C/C1=C/C=C1\CCC[C@]2(C)[C@@H]([C@H](C)CCCC(C)(C)O)CC[C@@H]12 [n=2] | – | – | good results as compared with n=1
4 | C=C1CC[C@H](OC(=O)CCCNC(=O)CCc2ccc(O)c([125I])c2)C/C1=C/C=C1\CCC[C@]2(C)[C@@H]([C@H](C)CCCC(C)(C)O)CC[C@@H]12 [n=3] | – | – | good results as compared with n=1
